Among the data in US5670526A, “1,3,4-oxadiazoles” (Otsuka Pharmaceutical Co., Ltd., priority 1995, dated 1997) are inhibition in vivo and inhibition values, retold here.

In one test the test system is Neutrophil migration. The experiment in a line: Immune complex (BSA/anti-BSA) induced neutrophil migration into mouse skin, myeloperoxidase (MPO) assay. It is filed as in vivo, C57BL/6 mouse. As to conditions: Mus musculus, Neutrophil; 12.5 mg of drug/site, i.d., 4 hours. The protocol:
Neutrophil migration and infiltration into tissue spaces and the effect thereon of the compounds of the instant compounds can be tested. For example, immune complexes can be developed at a subcutaneous or intradermal site to draw neutrophils and the effect of the instant compounds on neutrophil migration can be assessed. A protocol is as follows. Mice are injected IV with bovine serum albumin (BSA). Then the mice are injected intradermally with antibody to BSA. For experimental animals, the test substance is administered concurrently intradermally or subcutaneously at the site of antibody deposition. After about four hours, the animal is sacrificed, the skin at the injection site is removed and then treated appropriately, such as assaying for myeloperoxidase, to determine the extent of neutrophil migration to the injection site.
An i.v. injection of 100 μl of BSA at 10 mg/ml in saline was followed by a 25 μl injection of anti-BSA i.d. on the back side of a pre-shaven C57BL/6 mouse. At time 0, along with the BSA and anti-BSA, the test compound or vehicle was administered i.d. at the site of the antibody injection in a volume of 25 μl (for example, 0.5 mg/μl solution). Four hours post injection, the skin was removed and a myeloperoxidase (MPO) assay performed (Mulligan et al., J. Imm. 151(10): 5666-5674, 1993).
Briefly, the skin sample was placed in a 17×100 mm test tube containing 2 ml of ice cold buffer (PBS, pH 7.4). The sample was ground for 30 seconds and placed on ice. The sample was vortexed for 10 seconds and then sonicated for three minutes in iced water. The sample was frozen in dry ice for 30 minutes. The sample then was thawed rapidly in a water bath for 10 minutes. An aliquot of 1.5 ml was removed and placed in a microfuge tube. The sample was spun at high speed in a cold room for 15 minutes. The sample then was titrated across the wells in a microtiter plate with the first well containing a 1:3 dilution of sample, for example, 50 μl of sample and 150 μl of buffer. Substrate and hydrogen peroxide were added to each well. Following a suitable incubation period, sodium azide was added to the wells and the absorbance monitored in a spectrophotometer at 460 nm. […]

The subject of a further test is ELAM. The experiment in a line: ELISA for cell surface molecules: inhibition of ELAM expression on IL-1β stimulated HUVEC's. The following applies: Homo sapiens; for inhibition at 1 µg/mL: @ 1 μg/mL. It is filed as cell-based. The method, then:
(§1) The following were used in an ELISA for cell surface molecules: Costar 96-well TC plates, 2% gelatin, 1% BSA-Dulbecco's PBS w/CaMg^++, IL-1β, primary antibody e.g., 7A9 for ELAM (EP 505749) secondary biotinylated goat anti-mouse IgG/IgM, streptavidin-peroxidase, OPD substrate tablets and 30% hydrogen peroxide.
(§2) To begin, 96-well plates were coated with 2% gelatin (1 hour). The excess gelatin was aspirated from the wells. HUVEC's were seeded at 20,000 cells/well in a 200 μl volume.
(§3) Prior to assay, the test compounds were dissolved in DMSO at a stock concentration of 3 mg/ml. The stock solutions were set at room temperature and observed to see if dissolution was complete. When monolayers reached confluence (24-28 hours after seeding) the test compounds were added to the wells at final concentrations of 10 μg/ml, 3 μg/ml and 1 μg/ml. The plates were incubated for 1 hour at 37° C. Then, IL-1β at a final concentration of 1 μg/ml was added and the plates incubated for 4 hours at 37° C. The supernatant was removed from the plates by flicking into a sink. The wells were washed 3× with 1% BSA-Dulbecco's PBS.
(§4) Primary antibody (7A9 for ELAM or a suitable antibody for VCAM or ICAM) at a concentration of 2.5 μg/ml in a 50 μl volume was added to each well. The plates were incubated at 4° C. for 45 minutes to 1 hour. The wells were washed 3× with 1% BSA Dulbecco's PBS. Secondary antibody (biotinylated goat anti-mouse IgG-IgM, commercially available) at 50 μl/well at a final dilution of 1:1,000 was added to the well and the plates were incubated for 45 minutes to 1 hour at 4° C. The wells were washed 3× with 1% BSA-Dulbecco's PBS.
(§5) Streptavidin-peroxidase at 50 μl/well with a final dilution of 1:3,000 was added to each well and the plates were incubated at 4° C. for 30 minutes. Again the plates were washed 3× with 1% BSA-Dulbecco's PBS.
(§6) Substrate solution (OPD tablets, citric acid buffer and hydrogen peroxide solution) was prepared and added at 100 μl/well. The plates were incubated 15 minutes at room temperature on a plate shaker and the reaction was stopped with 12.5% sulfuric acid. Plates were read for absorbance values at 492 nm.
(§7) The degree of inhibition in expression of ELAM or VCAM by a compound of the instant invention is manifest as a decrease in specific primary antibody binding. In the following table the IC50 values are provided using a representative sampling of compounds of the instant invention.
On the technique in general: In an ELISA, binding on a coated surface is turned into a signal by an enzyme label.

The subject of another test is VCAM. The experiment in a line: ELISA for cell surface molecules: inhibition of VCAM expression on IL-1β stimulated HUVEC's. The class given is cell-based. The following applies: Homo sapiens; for inhibition at 1 µg/mL: @ 1 μg/mL. The method, then:
as §1, §2, §3, §4, §5, §6, §7

The test system of test [1] is Concanavalin A (ConA)-induced liver injury. The experiment in a line: Concanavalin A (ConA)-induced liver injury in mice, serum SGOT. It is filed as in vivo, C57BL/6 mice. The following applies: Mus musculus, ip; 20 mg/kg i.p.; ConA 15 mg/kg i.v., 17 hours; read-out: SGOT (% decrease).
Test [2] has the same test system. The description is as above. It is filed as in vivo, C57BL/6 mice. As to conditions: Mus musculus, ip; 50 mg/kg i.p.; ConA 15 mg/kg i.v., 17 hours; read-out: SGOT (% decrease). The protocol: The following protocol was used for the Concanavalin A (ConA)-induced liver injury in mice. C57BL/6 mice were used. A solution of ConA (Sigma)in PBS was prepared at a concentration of 1.5 mg/ml. The mice were administered, i.p., with […] of a 10% DMSO solution containing varying amounts (adjusted to give 25 mg/kg to 50 mg/kg of compound) of the representative compounds of interest. Fifteen minutes later, the mice were treated via the tail vein with 15 mg/kg of ConA in PBS along with […] of 10% DMSO solution.
The mice were sacrificed after 17 hours and the blood collected into small conical tubes. The tubes were centrifuged and the serum collected and assayed for serum glutamic oxaloacetic transaminase (SGOT) (Sigma GOT kit). The high level enzyme standard (Sigma) was used to make the standard curve, as 100(undiluted), 50, 25, 12.5 and 0 S-F units/mi. Samples were diluted 1:5, 1:25 and 1:125 by adding 25 μl of serum to 100 μl of H2 O and serially diluting 25 μl into 100 μl two more times. Then 100 μl of the Sigma substrate were added to each tube along with 20 μl of each diluted sample and enzyme standard. The tube was incubated in a 37° C. bath with gentle shaking for 1 hour. To that was added […] of colorizing reagent and the tube was left to stand for 30 minutes. Then 500 μl of 0.8N NaOH solution were added, the tubes were capped and inverted to mix thoroughly. A 150 μl aliquot of each sample and 150 μl of the standard were added to wells of a 96-well plate and color formation was monitored at 490 nm. The amounts of SGOT were calculated using a standard curve, converted to Sigma-Frankel units/ml.

The structures appear in SMILES notation.

For orientation: inhibition means the change of the read-out against control, counted positive when it falls.

`[O-][S+](Cc1ccccc1)c1nnc(-c2ccccn2)o1` (stereo not drawn) [Compound 97] returned an inhibition in vivo at 12.5 mg/site in the test on Neutrophil migration of 80%. The inhibition at 1 µg/mL in the test on ELAM came to 50%; in the test on VCAM, 55%. The inhibition in vivo at 20 mg/kg in test [1] was 45%.
Regarding `[O-][S+](Cc1ccccc1)c1nnc(-c2cccnc2)o1` (stereo not drawn) [Compound 101], the inhibition in vivo at 12.5 mg/site with Neutrophil migration stood at 50%. The inhibition at 10 µg/mL with ELAM (@ 10 μg/mL) turned out to be 75%; in the test on VCAM (@ 10 μg/mL), 40%. The inhibition in vivo at 50 mg/kg in test [2] is 68%.
`COc1c(C)cnc(C[S+]([O-])c2nnc(-c3ccccc3O)o2)c1C` (stereo not drawn) [Compound 113] displayed an inhibition in vivo at 12.5 mg/site in the test with Neutrophil migration of 20%. Further, the inhibition at 1 µg/mL in the test with ELAM stood at 30%; with VCAM, 50%. In addition, the inhibition in vivo at 50 mg/kg in test [2] is 80%.
